Species on record: Rattus norvegicus
Assay: Open TG-GATES - Regimen: Single
Type: toxicity, organism-based, Sprague-Dawley
Set-up: regimen Single, gender Male, age 6 weeks
Conditions: in vivo, po, 0 mg/kg, route gavage, dose level Control; for APTT / Bas / Eos / Fbg / Hb / Ht / Lym / MCH / MCHC / MCV / Mono / Neu / PT / Plat / RBC / Ret / WBC: tissue Blood; for KIDNEY_L / KIDNEY_R / KIDNEY_TOTAL: tissue Kidney; for LIVER: tissue Liver; for A/G / ALP / ALT / AST / BUN / CRE / Ca / Cl / DBIL / GLC / IP / K / LDH / Na / PL / RALB / TBIL / TC / TG / TP / gamma-GTP: tissue Plasma

In the case of CN(C/C=C/C#CC(C)(C)C)Cc1cccc2ccccc12 [TERBINAFINE], the TERMINAL_BW (3 h) was 225.4 g, the APTT (3 h) was 18.8 s and the Bas (3 h) was 0.6%. It also gave an Eos (3 h) of 0.8%, a Fbg (3 h) of 226 mg/dL and a Hb (3 h) of 13.2 g/dL. The Ht (3 h) was 39.2%, the Lym (3 h) was 81.8% and the MCH (3 h) was 21.8 pg. The MCHC (3 h) was 33.7%, the MCV (3 h) was 64.7 fL and the Mono (3 h) was 2.4%. For the same compound, the Neu (3 h) was 13.6%, the PT (3 h) was 12.1 s and the Plat (3 h) was 121.7 x10_4/uL. The RBC (3 h) was 606.2 x10_4/ul, the Ret (3 h) was 7.5% and the WBC (3 h) was 116.5 x10_2/uL. The KIDNEY_L (3 h) was 1.1 g, the KIDNEY_R (3 h) was 1 g and the KIDNEY_TOTAL (3 h) was 2.1 g. The LIVER (3 h) was 10.9 g, the A/G (3 h) was 1.7 and the ALP (3 h) was 1027 IU/L. The ALT (3 h) was 40.4 IU/L, the AST (3 h) was 72.4 IU/L and the BUN (3 h) was 12 mg/dL. It also gave a CRE (3 h) of 0.4 mg/dL, a Ca (3 h) of 10.8 mg/dL and a Cl (3 h) of 101.8 meq/L. The DBIL (3 h) was 0.074 mg/dL, the GLC (3 h) was 202.2 mg/dL and the IP (3 h) was 9 mg/dL. It also gave a K (3 h) of 3.7 meq/L, an LDH (3 h) of 154.4 IU/L and a Na (3 h) of 140.8 meq/L. For the same compound, the PL (3 h) was 151.8 mg/dL, the RALB (3 h) was 3.4 g/dL and the TBIL (3 h) was 0.1 mg/dL. For the same compound, the TC (3 h) was 85.4 mg/dL, the TG (3 h) was 68.4 mg/dL and the TP (3 h) was 5.5 g/dL. For the same compound, the gamma-GTP (3 h) was 1 IU/L, the TERMINAL_BW (6 h) was 222.8 g and the APTT (6 h) was 19 s. It also gave a Bas (6 h) of 0.6%, an Eos (6 h) of 0.8% and a Fbg (6 h) of 229.4 mg/dL. For the same compound, the Hb (6 h) was 13.7 g/dL, the Ht (6 h) was 40.5% and the Lym (6 h) was 72.6%. It also gave an MCH (6 h) of 21.1 pg, an MCHC (6 h) of 33.8% and an MCV (6 h) of 62.3 fL. The Mono (6 h) was 3.2%, the Neu (6 h) was 22.4% and the PT (6 h) was 12 s. It also gave a Plat (6 h) of 132.2 x10_4/uL, an RBC (6 h) of 650.8 x10_4/ul and a Ret (6 h) of 6.6%. For the same compound, the WBC (6 h) was 113 x10_2/uL, the KIDNEY_L (6 h) was 1 g and the KIDNEY_R (6 h) was 1 g. It also gave a KIDNEY_TOTAL (6 h) of 2 g, an LIVER (6 h) of 9.9 g and an A/G (6 h) of 1.7. It also gave an ALP (6 h) of 967.6 IU/L, an ALT (6 h) of 34.8 IU/L and an AST (6 h) of 69.6 IU/L. It also gave a BUN (6 h) of 10.6 mg/dL, a CRE (6 h) of 0.4 mg/dL and a Ca (6 h) of 10.8 mg/dL. The Cl (6 h) was 102.8 meq/L, the DBIL (6 h) was 0.074 mg/dL and the GLC (6 h) was 197.2 mg/dL. It also gave an IP (6 h) of 8.8 mg/dL, a K (6 h) of 3.8 meq/L and an LDH (6 h) of 147.4 IU/L. The Na (6 h) was 140.6 meq/L, the PL (6 h) was 133.4 mg/dL and the RALB (6 h) was 3.5 g/dL. It also gave a TBIL (6 h) of 0.1 mg/dL, a TC (6 h) of 76.2 mg/dL and a TG (6 h) of 59.2 mg/dL. The TP (6 h) was 5.5 g/dL, the gamma-GTP (6 h) was 1 IU/L and the TERMINAL_BW (9 h) was 219.8 g. It also gave an APTT (9 h) of 18.2 s, a Bas (9 h) of 0.6% and an Eos (9 h) of 1%. For the same compound, the Fbg (9 h) was 229 mg/dL, the Hb (9 h) was 13.4 g/dL and the Ht (9 h) was 39.8%. For the same compound, the Lym (9 h) was 73.8%, the MCH (9 h) was 20.9 pg and the MCHC (9 h) was 33.5%. The MCV (9 h) was 62.5 fL, the Mono (9 h) was 1.8% and the Neu (9 h) was 22.4%. It also gave a PT (9 h) of 12.2 s, a Plat (9 h) of 119.3 x10_4/uL and an RBC (9 h) of 637.4 x10_4/ul. The Ret (9 h) was 6.8%, the WBC (9 h) was 89.2 x10_2/uL and the KIDNEY_L (9 h) was 1 g. The KIDNEY_R (9 h) was 1 g, the KIDNEY_TOTAL (9 h) was 2 g and the LIVER (9 h) was 9.3 g. For the same compound, the A/G (9 h) was 1.6, the ALP (9 h) was 810.4 IU/L and the ALT (9 h) was 31 IU/L. It also gave an AST (9 h) of 62.8 IU/L, a BUN (9 h) of 11.8 mg/dL and a CRE (9 h) of 0.4 mg/dL. For the same compound, the Ca (9 h) was 10.5 mg/dL, the Cl (9 h) was 103.6 meq/L and the DBIL (9 h) was 0.066 mg/dL. It also gave a GLC (9 h) of 204.2 mg/dL, an IP (9 h) of 9.8 mg/dL and a K (9 h) of 3.9 meq/L. It also gave an LDH (9 h) of 167.6 IU/L, a Na (9 h) of 141.4 meq/L and a PL (9 h) of 136.4 mg/dL. The RALB (9 h) was 3.4 g/dL, the TBIL (9 h) was 0.1 mg/dL and the TC (9 h) was 70.2 mg/dL. The TG (9 h) was 62 mg/dL, the TP (9 h) was 5.6 g/dL and the gamma-GTP (9 h) was 1.4 IU/L. The TERMINAL_BW (24 h) was 238.7 g, the APTT (24 h) was 18.9 s and the Bas (24 h) was 0.8%. The Eos (24 h) was 1%, the Fbg (24 h) was 236.8 mg/dL and the Hb (24 h) was 13.2 g/dL. It also gave a Ht (24 h) of 39.1%, a Lym (24 h) of 79.2% and an MCH (24 h) of 21.6 pg. It also gave an MCHC (24 h) of 33.7%, an MCV (24 h) of 64.3 fL and a Mono (24 h) of 2.8%. The Neu (24 h) was 16.4%, the PT (24 h) was 11.8 s and the Plat (24 h) was 132.1 x10_4/uL. For the same compound, the RBC (24 h) was 608.4 x10_4/ul, the Ret (24 h) was 6.3% and the WBC (24 h) was 97.8 x10_2/uL. The KIDNEY_L (24 h) was 1 g, the KIDNEY_R (24 h) was 1 g and the KIDNEY_TOTAL (24 h) was 2 g. For the same compound, the LIVER (24 h) was 11.6 g, the A/G (24 h) was 1.6 and the ALP (24 h) was 986.4 IU/L. It also gave an ALT (24 h) of 36.4 IU/L, an AST (24 h) of 74.4 IU/L and a BUN (24 h) of 15.4 mg/dL. The CRE (24 h) was 0.4 mg/dL, the Ca (24 h) was 10.9 mg/dL and the Cl (24 h) was 103.6 meq/L. For the same compound, the DBIL (24 h) was 0.1 mg/dL, the GLC (24 h) was 196.8 mg/dL and the IP (24 h) was 7.4 mg/dL. The K (24 h) was 4.2 meq/L, the LDH (24 h) was 189.4 IU/L and the Na (24 h) was 141.2 meq/L. For the same compound, the PL (24 h) was 152 mg/dL, the RALB (24 h) was 3.5 g/dL and the TBIL (24 h) was 0.2 mg/dL. For the same compound, the TC (24 h) was 74.4 mg/dL, the TG (24 h) was 107.8 mg/dL and the TP (24 h) was 5.7 g/dL. For the same compound, the gamma-GTP (24 h) was 1.6 IU/L.
